Here are results for 4 compounds from paper PMC9237828, “Chemically Tuning Resveratrol for the Effective Killing of Gram-Positive Pathogens” (Journal of Natural Products, 2022).

In one experiment the test system is B. cereus ATCC10987. As to the kind of experiment: microbe, parasite or virus in culture. In kind it is cell-based, Bacillus cereus. To be noted: Bacillus cereus, ATCC10987, 20 h, read-out: Minimal Inhibition Concentration (MIC) B. cereus ATCC10987.
Another experiment has as its system B. cereus ATCC14579. As to the kind of experiment: microbe, parasite or virus in culture. Type of experiment: cell-based, Bacillus cereus. To be noted: Bacillus cereus, ATCC14579, 20 h, read-out: Minimal Inhibition Concentration (MIC) B. cereus ATCC14579.
The next experiment relates to S.aureus LMG8224. As to the kind of experiment: microbe, parasite or virus in culture. In kind it is cell-based, Staphylococcus aureus. The settings on record: Staphylococcus aureus, LMG8224, 20 h, read-out: Minimal Inhibition Concentration (MIC) S.aureus LMG8224.
Another experiment has as its system S.aureus LMG10147. As to the kind of experiment: microbe, parasite or virus in culture. Type of experiment: cell-based, Staphylococcus aureus. The settings on record: Staphylococcus aureus, LMG10147, 20 h, read-out: Minimal Inhibition Concentration (MIC) S.aureus LMG10147.
The subject of the next experiment is S.aureus LMG15975. As to the kind of experiment: microbe, parasite or virus in culture. Type of experiment: cell-based, Staphylococcus aureus. To be noted: Staphylococcus aureus, LMG15975, 20 h, read-out: Minimal Inhibition Concentration (MIC) S.aureus LMG15975.
A further experiment relates to C. beijerinckii B504. As to the kind of experiment: MIC test, anaerobes. Type of experiment: cell-based. To be noted: Clostridium beijerinckii, B504, 24 h; read-out: Minimal Inhibition Concentration (MIC) C. beijerinckii B504. The protocol: (§1) The resveratrol derivatives were serially diluted in cMHB (BD Difco) in 96-well microplates. Plates were then inoculated with the indicator bacteria at a final concentration of 5 × 10^5 CFU/mL and incubated at 37 °C for 20 h. In the case of the anaerobic bacteria (Clostridium and Clostridioides), the test was performed following the recommendation of CLSI for anaerobes[77] but using RCM medium instead of cMHB. The cultures were cultivated inside an anaerobic chamber at 37 °C for 24 h. All the tests were performed in triplicate.

The subject of another experiment is C. ihumii AP5. As to the kind of experiment: MIC test, anaerobes. Type of experiment: cell-based. The settings on record: 24 h; read-out: Minimal Inhibition Concentration (MIC) C. ihumii AP5. How it is done: as §1
Another experiment concerns C. botulinum CECT551. As to the kind of experiment: microbe, parasite or virus in culture. In kind it is cell-based. To be noted: Clostridium botulinum, CECT551, 24 h, read-out: Minimal Inhibition Concentration (MIC) C. botulinum CECT551.
In another experiment the test system is C. difficile CECT531. As to the kind of experiment: microbe, parasite or virus in culture. Type of experiment: cell-based, Clostridioides difficile. The settings on record: Clostridioides difficile, CECT531, 24 h, read-out: Minimal Inhibition Concentration (MIC) C. difficile CECT531.
A further experiment deals with C. perfringens CECT376. As to the kind of experiment: microbe, parasite or virus in culture. To be noted: Clostridium perfringens, CECT376, 24 h, read-out: Minimal Inhibition Concentration (MIC) C. perfringens CECT376. In kind it is cell-based.
For a further experiment, the system named is C. tetani CECT4629. As to the kind of experiment: microbe, parasite or virus in culture. Type of experiment: cell-based. The settings on record: Clostridium tetani, CECT4629, 24 h, read-out: Minimal Inhibition Concentration (MIC) C. tetani CECT4629.
The test system of experiment [1] is panel of aerobic and anaerobic Gram-positive bacteria. As to the kind of experiment: organism not typed. Type of experiment: cell-based.
A further experiment relates to E. faecalis LMG08222. As to the kind of experiment: microbe, parasite or virus in culture. In kind it is cell-based, Enterococcus faecalis. The settings on record: Enterococcus faecalis, LMG08222, 20 h, read-out: Minimal Inhibition Concentration (MIC) E. faecalis LMG08222.
The next experiment concerns E. faecalis LMG16216. As to the kind of experiment: microbe, parasite or virus in culture. To be noted: Enterococcus faecalis, LMG16216, 20 h, read-out: Minimal Inhibition Concentration (MIC) E. faecalis LMG16216. In kind it is cell-based, Enterococcus faecalis.
A further experiment has as its system E. faecalis V583. As to the kind of experiment: microbe, parasite or virus in culture. Type of experiment: cell-based, Enterococcus faecalis. To be noted: Enterococcus faecalis, V583, 20 h, read-out: Minimal Inhibition Concentration (MIC) E. faecalis V583.
The subject of the next experiment is E. faecium LMG11423. As to the kind of experiment: microbe, parasite or virus in culture. Type of experiment: cell-based. The settings on record: Enterococcus faecium, LMG11423, 20 h, read-out: Minimal Inhibition Concentration (MIC) E. faecium LMG11423.
Experiment [2] relates to E. faecium LMG16003. As to the kind of experiment: microbe, parasite or virus in culture. In kind it is cell-based. The settings on record: Enterococcus faecium, LMG16003, 20 h, read-out: Minimal Inhibition Concentration (MIC) E. faecium LMG16003.
The subject of experiment [3] is E. faecium LMG16003. As to the kind of experiment: Combined action with antibiotics (MIC reduction, checkerboard FICI). In kind it is cell-based.
Another experiment deals with S. aureus LMG8224. Described as above. Type of experiment: cell-based, Staphylococcus aureus.
The next experiment has as its system E. coli LMG8224. As to the kind of experiment: Outer membrane permeabilization test (MIC with or without L-11 peptide).
[4] abbreviates: fractional inhibitory concentration index, EUCAST, * means relevant FICI values.

In brackets after ≈: the same amount, converted by molar mass.

On to `CCCCCCCC(=O)OC[C@H]1O[C@@H](Oc2cc(/C=C/c3ccc(OC)cc3)cc(OC)c2)[C@H](O)[C@@H](O)[C@@H]1O` [compound 28], for which the MIC amounted to 128 µM (≈ 69.7 µg/mL) with B. cereus ATCC10987; 128 µM (≈ 69.7 µg/mL) with B. cereus ATCC14579; 128 µM (≈ 69.7 µg/mL) with S.aureus LMG8224; 128 µM (≈ 69.7 µg/mL) with S.aureus LMG10147; 128 µM (≈ 69.7 µg/mL) with S.aureus LMG15975; 32 µM (≈ 17.4 µg/mL) in the experiment on C. beijerinckii B504. Moreover, the MIC was 64 µM (≈ 34.9 µg/mL) with C. ihumii AP5; 26.6 ± 5.3 µM (≈ 14.5 µg/mL) with C. botulinum CECT551; 85.3 ± 21.3 µM (≈ 46.5 µg/mL) in the experiment on C. difficile CECT531; 128 µM (≈ 69.7 µg/mL) in the experiment on C. perfringens CECT376; 16 µM (≈ 8.71 µg/mL) in the experiment with C. tetani CECT4629. The “antibacterial activity against the Gram-positive panel” value in [1] was “weak antibacterial activity”.
As to `CCCCCCCCCCCCCCCCCC(=O)OC[C@H]1O[C@@H](Oc2cc(O)cc(/C=C/c3ccc(O)cc3)c2)[C@H](O)[C@@H](O)[C@@H]1O` [compound 6, piceid stearate], the MIC with E. faecalis LMG08222 stood at 16 µM (≈ 10.5 µg/mL); with E. faecalis LMG16216, 128 µM (≈ 84.1 µg/mL); with E. faecalis V583, 128 µM (≈ 84.1 µg/mL); in the experiment on E. faecium LMG11423 it was 1 µM (≈ 0.657 µg/mL); in the experiment with E. faecium LMG16003 [2], 2.6 ± 0.6 µM (≈ 1.71 µg/mL).
As to `CNC(C)C1CCC(N)C(OC2C(N)CC(N)C(OC3OCC(C)(O)C(NC)C3O)C2O)O1` (stereo not drawn) [gentamicin], the MIC in the experiment with B. cereus ATCC10987 is 4 µM (≈ 1.91 µg/mL); in the experiment on E. faecalis V583, more than 32 µM; in the experiment with E. faecium LMG16003 [2] it was 12.6 ± 1.61 µM (≈ 6 µg/mL); with S.aureus LMG8224, 1 ± 0.35 µM (≈ 0.478 µg/mL); in the experiment with C. difficile CECT531 it was more than 32 µM; with C. perfringens CECT376 it was more than 32 µM. Also, the “MIC of antibiotic in combination with 15” value was 13.3 ± 1.8 µM with E. faecium LMG16003 [3] (15 at 4 μM), 5.3 ± 0.9 µM in the experiment on E. faecium LMG16003 [3] (15 at 8 μM), 0.5 ± 0 µM with S. aureus LMG8224 (15 at 2 μM) and 0.1 ± 0 µM in the experiment with S. aureus LMG8224 (15 at 4 μM). In addition, the “MIC of antibiotic in combination with 17” value is 13.3 ± 1.8 µM with E. faecium LMG16003 [3] (17 at 2 μM), 6.6 ± 0.9 µM in the experiment with E. faecium LMG16003 [3] (17 at 4 μM), 0.3 ± 0 µM in the experiment on S. aureus LMG8224 (17 at 2 μM) and 0.1 ± 0 µM with S. aureus LMG8224 (17 at 4 μM). Moreover, the “FICI, antibiotic with 15” value came out at 0.41 with E. faecium LMG16003 [3] (setting [4]) and 0.37 in the experiment on S. aureus LMG8224 (setting [4]). The entries for the “FICI, antibiotic with 17” value with E. faecium LMG16003 [3] (setting [4]) and with S. aureus LMG8224 (setting [4]) were 0.66 and 0.58, respectively. In addition, the “MIC of antibiotic in combination with RES” value in the experiment with S. aureus LMG8224 (RES at 4 μM) stood at 1 ± 0 µM. The “MIC of antibiotic alone (Ab)” value in the experiment with S. aureus LMG8224 (antibiotic alone) stood at 1 ± 0 µM.
With `COc1cc(/C=C/c2ccc(O[C@@H]3O[C@H](C(=O)O)[C@@H](O)[C@H](O)[C@H]3O)cc2)cc(OC)c1` [compound 30, PTER glucuronate], the MIC is 16 µM (≈ 6.92 µg/mL) with B. cereus ATCC10987; 13.3 ± 2.6 µM (≈ 5.75 µg/mL) with B. cereus ATCC14579; 64 µM (≈ 27.7 µg/mL) in the experiment on E. faecalis LMG08222; 128 µM (≈ 55.4 µg/mL) in the experiment with E. faecalis LMG16216; 128 µM (≈ 55.4 µg/mL) with E. faecalis V583; 32 µM (≈ 13.8 µg/mL) in the experiment on S.aureus LMG8224. Also, the MIC is 32 µM (≈ 13.8 µg/mL) in the experiment on S.aureus LMG10147; 32 µM (≈ 13.8 µg/mL) in the experiment with S.aureus LMG15975; 10.7 ± 2.6 µM (≈ 4.63 µg/mL) in the experiment on C. beijerinckii B504; 8 µM (≈ 3.46 µg/mL) in the experiment on C. ihumii AP5; 4 µM (≈ 1.73 µg/mL) in the experiment with C. botulinum CECT551; 13.3 ± 2.6 µM (≈ 5.75 µg/mL) in the experiment on C. difficile CECT531. In addition, the MIC with C. perfringens CECT376 was 5.3 ± 1.3 µM (≈ 2.29 µg/mL); in the experiment on C. tetani CECT4629, 4 µM (≈ 1.73 µg/mL); in experiment [1] it was less than 16 µM; with E. coli LMG8224 (Escherichia coli, LMG8224, read-out: MIC (μM) L-11 + 0 μM) it was more than 128 µM. Also, in the experiment with E. coli LMG8224 (presence of 4 μM L-11 outer-membrane-perturbing peptide), the “MIC (μM) L-11 + 4 μM” value was 16 ± 0 µM.
